Data published in patent publication US20030013688A1, “Synergistic combination of pravastatin and aspirin and method” (priority 2001, published 2003).

System: any cardiac event, including ischemic stroke, or death
Assay: Bayesian hierarchical (Cox proportional hazards, Models 1 and 2) analysis of five secondary prevention studies (CARE, LIPID, PLAC I, PLAC II, REGRESS) for synergy between pravastatin and aspirin
Format: in vivo, human
Details: for posterior mean of the coefficient γT: Model 1, logarithmic scale, relative to placebo (γplacebo=0)
Protocol: In this study 40 mg pravastatin and 81 mg aspirin and higher were employed.
The primary endpoint was (i) any cardiac event, including ischemic stroke, or death. Secondary endpoints were individual components of the primary endpoint: (ii) any cardiac event, excluding stroke, (iii) any myocardial infarction, (iv) ischemic stroke, and (v) death. Analyses of these secondary endpoints as opposed to the primary endpoint are subject to greater uncertainty because the numbers of events are smaller. Therefore, conclusions for the secondary endpoints are likely to be less compelling.
The five studies available for addressing the synergy between pravastatin and aspirin for secondary prevention are listed and described in Table 1. Patients in all five studies were randomized to pravastatin vs placebo. All patients in all five studies are included in the primary analysis.
These may be due to random variability or to differences in patient populations. To take these differences into account, the role of patient characteristics was modeled, namely, the following covariates were considered: age, gender, smoking status, existence of coronary artery disease, and baseline values of LDL and HDL cholesterols, triglycerides, and diastolic and systolic blood pressures. In addition, the studies were conducted under different circumstances and by different investigators and even in different countries. Therefore, there may be additional study-specific differences that cannot be explained by differences in measured patient covariates. To allow for the possibility that treatment effects depend on study even after accounting for patient characteristics, Bayesian hierarchical modeling was used in which the study is one level of experimental unit and patient-within-study is a second level.
A brief introduction to Bayesian hierarchical modeling and a description of standard Bayesian hierarchical Cox proportional hazards model (Model 1) are set out below. An extension of the standard model that allows for treatment-specific time-varying hazards (Model 2) is also described. In addition, the sensitivity of the conclusions to the prior distribution of the parameter that regulates the extent of pooling of the various studies is addressed.
Model 1: Bayesian Hierarchical Analysis Using Cox Proportional Hazards Model
The Cox proportional hazards model takes hazard H to be of the form
where Z is the set of patient-specific covariates (listed above), β is the vector of regression coefficients and λ0(t) is the baseline hazard function. Treatment and study are considered separately from covariates Z, as follows: […]
Assessing the probability of synergy is straightforward in Model 1 when using Markov chain Monte Carlo (MCMC) methods. […] During each iteration of MCMC, this synergy condition is assessed. […]

| Compound | posterior mean of the coefficient γT (primary endpoint (All events)) | performance in comparison with placebo alone (primary endpoint (All events), Models 1 and 2) | estimated event rate (hazard) compared among treatment arms (stroke, Model 2, year 1) |
| --- | --- | --- | --- |
| CC(=O)Oc1ccccc1C(=O)O [aspirin, acetylsalicylic acid] | −0.0022 | essentially the same | lowest estimated event rate |
| CC[C@H](C)C(=O)O[C@H]1C[C@H](O)C=C2C=C[C@H](C)[C@H](CC[C@@H](O)C[C@@H](O)CC(=O)O)[C@H]21 [pravastatin] | −0.0985 | – | – |
